Measured values reported in publication PMC10313047, “During heat stress in Myxococcus xanthus, the CdbS PilZ domain protein, in concert with two PilZ-DnaK chaperones, perturbs chromosome organization and accelerates cell death” (PLOS Genetics, 2023).

Biological target: T1, His6-CdbS (Myxococcus xanthus, UniProt Q1D4C1)
T1 construct: gene MXAN_4328; full-length stand-alone PilZ protein (PilZ domain residues 7-82), N-terminal His6 tag (pET28a, pMS007), made in E. coli Arctic Express (DE3) RP
Assay: bio-layer interferometry, streptavidin sensor, equilibrium one-site fit
Type: binding
Conditions: labelled compound (biotinylated c-di-GMP immobilised on sensor); 50 mM Tris-HCl pH 7, 150 mM NaCl, 10% glycerol, 0.02% Tween-20

T1 sequence (Q1D4C1 entry or part of it): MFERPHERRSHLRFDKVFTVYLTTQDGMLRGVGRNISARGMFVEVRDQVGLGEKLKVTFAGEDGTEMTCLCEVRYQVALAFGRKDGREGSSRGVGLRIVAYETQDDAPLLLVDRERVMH

With Nc1nc2c(ncn2[C@@H]2O[C@@H]3COP(=O)(O)O[C@H]4[C@@H](O)[C@H](n5cnc6c(=O)[nH]c(N)nc65)O[C@@H]4COP(=O)(O)O[C@H]3[C@H]2O)c(=O)[nH]1 [c-di-GMP] the Kd was “His6-CdbS^R9A did not detectably bind c-di-GMP”.
